Data as given in patent publication US6355799B1, “Substituted benzene compounds, process for their preparation, and herbicidal and defoliant compositions containing them” (ISK Americas Incorporated, priority 1997, dated 2002).

Assays:
Format in all cases: in vivo
[1] = system: redroot pigweed (Amaranthus retroflexus, AMARE); assay: Pre-emerge test, greenhouse herbicide activity screening; details: pre-emerge, 14 days after application, rating scale 0-100
Procedure, shortened: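 Rating: 0–100 visual injury, 14 DAA. Application: acetone, 187 l/ha, 15–1000 g ai/ha, flat-fan track sprayer with nozzle 40–45 cm above soil or canopy. Post-emerge runs used 0.25% v/v surfactant on 2–3 leaf plants.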

[2] = system: barnyardgrass (Echinochloa crus-galli, ECHCG); assay: as above; details: pre-emerge, 14 days after application, rating scale 0-100
Procedure, shortened: (§1)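 Plants grown in 10 cm pots of sandy loam mix received acetone-dissolved compounds through a moving flat-fan nozzle. Doses ranged from 15 to 1000 g ai/ha. Pre-emerge pots were seeded one day earlier, post-emerge pots 8–21 days earlier. Fourteen days on, each pot was graded 0–100 for damage.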

[3] = system: green foxtail (Setaria viridis, SETVI); assay: as above; details: pre-emerge, 14 days after application, rating scale 0-100
Procedure, shortened: as §1

[4] = system: ivyleaf morningglory (Ipomoea hederacea, IPOHE); assay: as above; details: pre-emerge, 14 days after application, rating scale 0-100
Procedure, shortened: as §1

[5] = system: johnsongrass (Sorghum halepense, SORHA); assay: as above; details: pre-emerge, 14 days after application, rating scale 0-100
Procedure, shortened: as §1

[6] = system: lambsquarters (Chenopodium album, CHEAL); assay: as above; details: pre-emerge, 14 days after application, rating scale 0-100
Procedure, shortened: as §1

[7] = system: large crabgrass (Digitaria sanguinalis, DIGSA); assay: as above; details: pre-emerge, 14 days after application, rating scale 0-100
Procedure, shortened: as §1

[8] = system: sicklepod (Cassia obtusifolia, CASOB); assay: as above; details: pre-emerge, 14 days after application, rating scale 0-100
Procedure, shortened: as §1

[9] = system: velvetleaf (Abutilon theophrasti, ABUTH); assay: as above; details: pre-emerge, 14 days after application, rating scale 0-100
Procedure, shortened: as §1

[10] = system: field corn (Zea mays L., var. Dekalb 535, CORN); assay: Pre-emerge test, crop safety; details: pre-emerge, 14 days after application, rating scale 0-100
Procedure, shortened: (§2)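 Fourteen days after spraying, crop and weed injury was graded visually from 0, no effect, to 100, every plant dead. Test substances were dissolved in acetone and applied at 15–1000 g ai/ha with a flat-fan nozzle. Application was either pre-emergence, one day after sowing, or post-emergence at the 2–3 leaf stage.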

[11] = system: upland rice (Oryza sp., var. Tebonnet, RICE); assay: Pre-emerge test, crop safety; details: pre-emerge, 14 days after application, rating scale 0-100
Procedure, shortened: as §2

[12] = system: barnyardgrass (Echinochloa crus-galli, ECHCG); assay: Post-emerge test, greenhouse herbicide activity screening; details: 14 days after application; for Post-emerge Herbicidal Activity ECHCG (phytotoxicity rating): rating scale 0-100; for Post-emerge Herbicidal Activity, phytotoxicity rating ECHCG: rating scale 0-100 (0 no damage, 100 complete death)
Procedure, shortened: (§3)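 Visual ratings on a 0-100 scale (0 no damage, 100 all plants dead) were taken at 14 days after treatment. Rates of 15-1000 g ai/ha in acetone, 187 l/ha, were sprayed onto soil one day after planting (pre-emerge) or onto 2-3 leaf plants with 0.25% v/v surfactant (post-emerge).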

[13] = system: green foxtail (Setaria viridis, SETVI); assay: as above; details: 14 days after application; for Post-emerge Herbicidal Activity SETVI (phytotoxicity rating): rating scale 0-100; for Post-emerge Herbicidal Activity, phytotoxicity rating SETVI: rating scale 0-100 (0 no damage, 100 complete death)
Procedure, shortened: as §3

[14] = system: ivyleaf morningglory (Ipomoea hederacea, IPOHE); assay: as above; details: 14 days after application; for Post-emerge Herbicidal Activity IPOHE (phytotoxicity rating): rating scale 0-100; for Post-emerge Herbicidal Activity, phytotoxicity rating IPOHE: rating scale 0-100 (0 no damage, 100 complete death)
Procedure, shortened: as §3

[15] = system: johnsongrass (Sorghum halepense, SORHA); assay: as above; details: 14 days after application; for Post-emerge Herbicidal Activity SORHA (phytotoxicity rating): rating scale 0-100; for Post-emerge Herbicidal Activity, phytotoxicity rating SORHA: rating scale 0-100 (0 no damage, 100 complete death)
Procedure, shortened: as §3

[16] = system: large crabgrass (Digitaria sanguinalis, DIGSA); assay: as above; details: 14 days after application; for Post-emerge Herbicidal Activity DIGSA (phytotoxicity rating): rating scale 0-100; for Post-emerge Herbicidal Activity, phytotoxicity rating DIGSA: rating scale 0-100 (0 no damage, 100 complete death)
Procedure, shortened: as §3

[17] = system: redroot pigweed (Amaranthus retroflexus, AMARE); assay: as above; details: 14 days after application
Procedure, shortened: as §3

[18] = system: sicklepod (Cassia obtusifolia, CASOB); assay: as above; details: 14 days after application; for Post-emerge Herbicidal Activity CASOB (phytotoxicity rating): rating scale 0-100; for Post-emerge Herbicidal Activity, phytotoxicity rating CASOB: rating scale 0-100 (0 no damage, 100 complete death)
Procedure, shortened: as §3

[19] = system: velvetleaf (Abutilon theophrasti, ABUTH); assay: as above; details: 14 days after application; for Post-emerge Herbicidal Activity ABUTH (phytotoxicity rating): rating scale 0-100; for Post-emerge Herbicidal Activity, phytotoxicity rating ABUTH: rating scale 0-100 (0 no damage, 100 complete death)
Procedure, shortened: as §3

[20] = system: field corn (Zea mays L., var. Dekalb 535, CORN); assay: Post-emerge test, crop safety; details: 14 days after application; for Post-emerge Herbicidal Activity CORN (crop damage rating): rating scale 0-100; for Post-emerge phytotoxicity rating CORN (crop damage): rating scale 0-100 (0 no damage, 100 complete death)
Procedure, shortened: (§4)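 Each test used a mechanized track sprayer delivering 187 l/ha of acetone solution at 15–1000 g ai/ha. Post-emerge foliage at 2–3 leaves was treated with added 0.25% v/v non-ionic surfactant and bottom-watered only. Injury was assessed on day 14, where 100 means total kill.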

[21] = system: upland rice (Oryza sp., var. Tebonnet, RICE); assay: Post-emerge test, crop safety; details: 14 days after application; for Post-emerge Herbicidal Activity RICE (crop damage rating): rating scale 0-100; for Post-emerge phytotoxicity rating RICE (crop damage): rating scale 0-100 (0 no damage, 100 complete death)
Procedure, shortened: as §4

COc1c(Cl)cc(F)c(-n2c(=O)cc(C(F)(F)F)n(C)c2=O)c1NN=CC(C)c1ccccc1 (stereo not drawn) [15-17]
phytotoxicity rating AMARE ([1]; 63 g ai/ha): 100
phytotoxicity rating AMARE ([1]; 250 g ai/ha): 100
phytotoxicity rating ECHCG ([2]; 63 g ai/ha): 100
phytotoxicity rating ECHCG ([2]; 250 g ai/ha): 100
phytotoxicity rating SETVI ([3]; 63 g ai/ha): 100
phytotoxicity rating SETVI ([3]; 250 g ai/ha): 100
phytotoxicity rating IPOHE ([4]; 63 g ai/ha): 100
phytotoxicity rating IPOHE ([4]; 250 g ai/ha): 100
phytotoxicity rating SORHA ([5]; 63 g ai/ha): 100
phytotoxicity rating SORHA ([5]; 250 g ai/ha): 100
phytotoxicity rating CHEAL ([6]; 63 g ai/ha): 100
phytotoxicity rating CHEAL ([6]; 250 g ai/ha): 100
phytotoxicity rating DIGSA ([7]; 63 g ai/ha): 100
phytotoxicity rating DIGSA ([7]; 250 g ai/ha): 100
phytotoxicity rating CASOB ([8]; 63 g ai/ha): 100
phytotoxicity rating CASOB ([8]; 250 g ai/ha): 100
phytotoxicity rating ABUTH ([9]; 63 g ai/ha): 100
phytotoxicity rating ABUTH ([9]; 250 g ai/ha): 100
phytotoxicity rating CORN ([10]; 63 g ai/ha): 80
phytotoxicity rating CORN ([10]; 250 g ai/ha): 95
phytotoxicity rating RICE ([11]; 63 g ai/ha): 100
phytotoxicity rating RICE ([11]; 250 g ai/ha): 100
Post-emerge Herbicidal Activity ECHCG (phytotoxicity rating) ([12]; 63 g ai/ha): 50
Post-emerge Herbicidal Activity ECHCG (phytotoxicity rating) ([12]; 250 g ai/ha): 99
Post-emerge Herbicidal Activity SETVI (phytotoxicity rating) ([13]; 63 g ai/ha): 40
Post-emerge Herbicidal Activity SETVI (phytotoxicity rating) ([13]; 250 g ai/ha): 90
Post-emerge Herbicidal Activity IPOHE (phytotoxicity rating) ([14]; 63 g ai/ha): 100
Post-emerge Herbicidal Activity IPOHE (phytotoxicity rating) ([14]; 250 g ai/ha): 100
Post-emerge Herbicidal Activity SORHA (phytotoxicity rating) ([15]; 63 g ai/ha): 20
Post-emerge Herbicidal Activity SORHA (phytotoxicity rating) ([15]; 250 g ai/ha): 95
Post-emerge Herbicidal Activity DIGSA (phytotoxicity rating) ([16]; 63 g ai/ha): 40
Post-emerge Herbicidal Activity DIGSA (phytotoxicity rating) ([16]; 250 g ai/ha): 99
Post-emerge Herbicidal Activity AMARE (phytotoxicity rating) ([17]; 63 g ai/ha, rating scale 0-100 (0 no damage, 100 complete death)): 90
Post-emerge Herbicidal Activity AMARE (phytotoxicity rating) ([17]; 250 g ai/ha, rating scale 0-100): 100
Post-emerge Herbicidal Activity CASOB (phytotoxicity rating) ([18]; 63 g ai/ha): 80
Post-emerge Herbicidal Activity CASOB (phytotoxicity rating) ([18]; 250 g ai/ha): 100
Post-emerge Herbicidal Activity ABUTH (phytotoxicity rating) ([19]; 63 g ai/ha): 100
Post-emerge Herbicidal Activity ABUTH (phytotoxicity rating) ([19]; 250 g ai/ha): 100
Post-emerge Herbicidal Activity CORN (crop damage rating) ([20]; 63 g ai/ha): 35
Post-emerge Herbicidal Activity CORN (crop damage rating) ([20]; 250 g ai/ha): 80
Post-emerge Herbicidal Activity RICE (crop damage rating) ([21]; 63 g ai/ha): 75
Post-emerge Herbicidal Activity RICE (crop damage rating) ([21]; 250 g ai/ha): 90

CCOC(=O)C(Cl)Cc1cc(Cl)cc(F)c1-n1nc(C)n(C(F)F)c1=O (stereo not drawn) [14-52]
phytotoxicity rating AMARE ([1]; 63 g ai/ha): 40
phytotoxicity rating AMARE ([1]; 250 g ai/ha): 90
phytotoxicity rating ECHCG ([2]; 63 g ai/ha): 0
phytotoxicity rating ECHCG ([2]; 250 g ai/ha): 0
phytotoxicity rating SETVI ([3]; 63 g ai/ha): 0
phytotoxicity rating SETVI ([3]; 250 g ai/ha): 0
phytotoxicity rating IPOHE ([4]; 63 g ai/ha): 0
phytotoxicity rating IPOHE ([4]; 250 g ai/ha): 30
phytotoxicity rating SORHA ([5]; 63 g ai/ha): 0
phytotoxicity rating SORHA ([5]; 250 g ai/ha): 0
phytotoxicity rating CHEAL ([6]; 63 g ai/ha): 80
phytotoxicity rating CHEAL ([6]; 250 g ai/ha): 100
phytotoxicity rating DIGSA ([7]; 63 g ai/ha): 0
phytotoxicity rating DIGSA ([7]; 250 g ai/ha): 0
phytotoxicity rating CASOB ([8]; 63 g ai/ha): 0
phytotoxicity rating CASOB ([8]; 250 g ai/ha): 0
phytotoxicity rating ABUTH ([9]; 63 g ai/ha): 70
phytotoxicity rating ABUTH ([9]; 250 g ai/ha): 100
phytotoxicity rating CORN ([10]; 63 g ai/ha): 0
phytotoxicity rating CORN ([10]; 250 g ai/ha): 0
phytotoxicity rating RICE ([11]; 63 g ai/ha): 0
phytotoxicity rating RICE ([11]; 250 g ai/ha): 0
Post-emerge Herbicidal Activity, phytotoxicity rating ECHCG ([12]; Rate 63 g ai/ha): 0
Post-emerge Herbicidal Activity, phytotoxicity rating ECHCG ([12]; Rate 250 g ai/ha): 10
Post-emerge Herbicidal Activity, phytotoxicity rating SETVI ([13]; Rate 63 g ai/ha): 0
Post-emerge Herbicidal Activity, phytotoxicity rating SETVI ([13]; Rate 250 g ai/ha): 0
Post-emerge Herbicidal Activity, phytotoxicity rating IPOHE ([14]; Rate 63 g ai/ha): 100
Post-emerge Herbicidal Activity, phytotoxicity rating IPOHE ([14]; Rate 250 g ai/ha): 100
Post-emerge Herbicidal Activity, phytotoxicity rating SORHA ([15]; Rate 63 g ai/ha): 0
Post-emerge Herbicidal Activity, phytotoxicity rating SORHA ([15]; Rate 250 g ai/ha): 0
Post-emerge Herbicidal Activity, phytotoxicity rating DIGSA ([16]; Rate 63 g ai/ha): 0
Post-emerge Herbicidal Activity, phytotoxicity rating DIGSA ([16]; Rate 250 g ai/ha): 0
Post-emerge Herbicidal Activity, phytotoxicity rating AMARE ([17]; Rate 63 g ai/ha, rating scale 0-100 (0 no damage, 100 complete death)): 20
Post-emerge Herbicidal Activity, phytotoxicity rating AMARE ([17]; Rate 250 g ai/ha, rating scale 0-100 (0 no damage, 100 complete death)): 50
Post-emerge Herbicidal Activity, phytotoxicity rating CASOB ([18]; Rate 63 g ai/ha): 0
Post-emerge Herbicidal Activity, phytotoxicity rating CASOB ([18]; Rate 250 g ai/ha): 70
Post-emerge Herbicidal Activity, phytotoxicity rating ABUTH ([19]; Rate 63 g ai/ha): 90
Post-emerge Herbicidal Activity, phytotoxicity rating ABUTH ([19]; Rate 250 g ai/ha): 100
Post-emerge phytotoxicity rating CORN (crop damage) ([20]; Rate 63 g ai/ha): 0
Post-emerge phytotoxicity rating CORN (crop damage) ([20]; Rate 250 g ai/ha): 10
Post-emerge phytotoxicity rating RICE (crop damage) ([21]; Rate 63 g ai/ha): 0
Post-emerge phytotoxicity rating RICE (crop damage) ([21]; Rate 250 g ai/ha): 0
